Values of other authors as cited in US20030073069A1, “Drug rescue by redesign of ADMET/PK properties” (priority 2001, published 2003).
Like-named read-outs stand apart in the source and are kept apart here.

What was measured:
P450 [1] = tested on: P450
P450 [2] = settings: induction of a P450

| SMILES | No. of currently known drug interactions that involve the compound, Inhibition (P450 [1]) | No. of currently known drug interactions that involve the compound, Induction (P450 [2]) | No. of currently known drug interactions that involve the compound, Inhibition (P450 [1]; inhibition of a P450) |
| --- | --- | --- | --- |
| Cc1nnc2n1-c1ccc(Cl)cc1C(c1ccccc1)=NC2 [alprazolam] | 15 | 3 | – |
| CN(C)CCC=C1c2ccccc2CCc2ccccc21 [amitriptyline] | – | 11 | 5 |
| NC(=O)N1c2ccccc2C=Cc2ccccc21 [carbamazepine] | – | 9 | 3 |
| CNC1=Nc2ccc(Cl)cc2C(c2ccccc2)=[N+]([O-])C1 [chlordiazepoxide] | 7 | 3 | – |
| CC[C@H]1OC(=O)[C@H](C)[C@@H](O[C@H]2C[C@@](C)(OC)[C@@H](O)[C@H](C)O2)[C@H](C)[C@@H](O[C@@H]2O[C@H](C)C[C@H](N(C)C)[C@H]2O)[C@](C)(OC)C[C@@H](C)C(=O)[C@H](C)[C@@H](O)[C@]1(C)O [clarithromycin] | – | 1 | 1 |
| CN(C)CCCN1c2ccccc2CCc2ccc(Cl)cc21 [clomipramine] | – | 11 | 5 |
| O=C1CN=C(c2ccccc2Cl)c2cc([N+](=O)[O-])ccc2N1 [clonazepam] | 10 | 3 | – |
| O=C(O)C1N=C(c2ccccc2)c2cc(Cl)ccc2NC1=O (stereo not drawn) [clorazepate] | 7 | 3 | – |
| CN1CCN(C2=Nc3cc(Cl)ccc3Nc3ccccc32)CC1 [clozapine] | – | 1 | 2 |
| CNCCCN1c2ccccc2CCc2ccccc21 [desipramine] | – | 1 | 4 |
| CN(C)CCC=C1c2ccccc2COc2ccccc21 [doxepin] | – | 11 | 4 |
| Clc1ccc2c(c1)C(c1ccccc1)=NCc1nncn1-2 [estazolam] | 7 | 3 | – |
| CCOC(=O)C1=C(C)NC(C)=C(C(=O)OC)C1c1cccc(Cl)c1Cl (stereo not drawn) [felodipine] | – | 4 | 1 |
| CCN(CC)CCN1C(=O)CN=C(c2ccccc2F)c2cc(Cl)ccc21 [flurazepam] | 7 | 3 | – |
| O=C1CN=C(c2ccccc2)c2cc(Cl)ccc2N1CC(F)(F)F [halazepam] | 7 | 3 | – |
| C[C@]12CCC(=O)C=C1CC[C@@H]1[C@@H]2[C@@H](O)C[C@@]2(C)[C@H]1CC[C@]2(O)C(=O)CO [hydrocortisone] | – | 14 | 1 |
| CN(C)CCCN1c2ccccc2CCc2ccccc21 [imipramine] | – | 11 | 5 |
| CCC1(c2ccccc2)NC(=O)N(C)C1=O (stereo not drawn) [mephenytoin] | – | 2 | 4 |
| C[C@H]1C[C@@H]2[C@H]([C@@H](O)C[C@@]3(C)[C@H]2CC[C@]3(O)C(=O)CO)[C@@]2(C)C=CC(=O)C=C12 [methylprednisolone] | – | 14 | 1 |
| C[C@]12C=CC(=O)C=C1CC[C@H]1[C@@H]3C[C@@H](O)[C@](O)(C(=O)CO)[C@@]3(C)C[C@H](O)[C@@]12F [triamcinolone] | – | 10 | – |
